# Measurements as given in patent US8815931B2, “Oral formulations for tetrapyrrole derivatives” (Biolitec Pharma Marketing Ltd, priority 2009, dated 2014).
# Like-named read-outs stand apart in the source and are kept apart here.
# What was measured:
# bacteria cells = experiment: Dark toxicity towards bacteria cells; type: cell-based; conditions: 10 μM, no light
# [1] = cited from earlier work; for Formation of metabolites in the body: in vivo
SMILES,Dark toxicity towards bacteria cells (bacteria cells),Formation of metabolites in the body [1],Formation of metabolites in the body ([1]; listed as Temoporfin),Effect of lipoprotein levels and cholesterol metabolism on pharmacokinetics in plasma ([1]; plasma)
"CCCCCCc1c2nc(c(-c3ccc(C(=O)O)cc3)c3ccc([nH]3)c(-c3ccc(C(=O)O)cc3)c3nc(c(CCCCCC)c4ccc1[nH]4)C(O)C3O)C=C2 (stereo not shown) [BLC 6066, 2,3-Dihydro-2,3-dihydroxy-15,20-dihexyl-5,10-bis(4-carboxy-phenyl)porphyrin]",strong dark toxicity,–,–,–
"Oc1cccc(-c2c3nc(c(-c4cccc(O)c4)c4ccc([nH]4)c(-c4cccc(O)c4)c4nc(c(-c5cccc(O)c5)c5ccc2[nH]5)CC4)C=C3)c1 [mTHPC, m-tetrahydroxyphenylchlorin]",–,does not form metabolites,no known enzyme system in the mammalian body which can metabolize Temoporfin,neither lipoprotein levels nor cholesterol metabolism affects the pharmacokinetics
